Counter-ions that a name gives are not always drawn.
Target: T1, haematopoietic prostaglandin D synthase (H-PGDS) (Homo sapiens, UniProt O60760)
T1 construct: Full length human H-PGDS cDNA (Invitrogen Ultimate ORF 10H13026) was amplified by PCR; 6-His (N); TEV protease cleavage site (N); made in house; host or cells: E. coli BL21 (DE3*), vector pET22b+
Test: H-PGDS RapidFire high throughput mass spectrometry assay (conversion of PGH2 to PGD2)
Format: biochemical
Conditions: 10 nM H-PGDS, PGH2 formed in situ by COX-2 from arachidonic acid; read-out: Potency Range (mean pIC50) (converted)
Summary of the method: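 PGH2 substrate generated in situ by COX-2 (full-length human, FLAG-tagged, Sf9-expressed) from arachidonic acid at ˜10 μM, then converted by full-length human His-tagged H-PGDS (E. coli-expressed). RapidFire SPE–triple quadrupole MS measured PGD2 against PGF2α as substrate surrogate to give percent conversion.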

T1 sequence (O60760 whole entry): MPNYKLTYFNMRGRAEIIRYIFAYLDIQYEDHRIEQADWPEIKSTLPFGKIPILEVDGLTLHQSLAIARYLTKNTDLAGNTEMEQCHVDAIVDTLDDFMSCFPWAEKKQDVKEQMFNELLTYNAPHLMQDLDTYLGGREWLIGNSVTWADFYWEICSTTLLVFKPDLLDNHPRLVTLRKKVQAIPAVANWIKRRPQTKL

Row | SMILES | IC50
1 | CC1(NC(=O)[C@H]2C[C@H](Oc3cc(F)cc4scnc34)C2)CN(c2ncccn2)C1 [Example 238, (trans)-3-((6-Fluorobenzo[d]thiazol-4-yl)oxy)-N-(3-methyl-1-(pyrimidin-2-yl)azetidin-3-yl)cyclobutanecarboxamide] | 100 to 1000 nM
2 | CNC(=O)c1csc(NC(=O)[C@H]2C[C@H](Oc3cccc4cccnc34)C2)n1 [Example 196, N-Methyl-2-((trans)-3-(quinolin-8-yloxy)cyclobutanecarboxamido)thiazole-4-carboxamide, trifluoroacetic acid salt] | 10 to 79.4 nM
3 | COCCNc1nccc(N2CC(NC(=O)[C@H]3C[C@H](Oc4cccc5scnc45)C3)C2)n1 [Example 72, (trans)-3-(Benzo[d]thiazol-4-yloxy)-N-(1-(2-((2-methoxyethyl)amino)pyrimidin-4-yl)azetidin-3-yl)cyclobutanecarboxamide] | 100 to 1000 nM
4 | COc1ccc(F)cc1O[C@H]1C[C@H](C(=O)Nc2ncc(C(C)(C)O)s2)C1 [Example 165, (trans)-3-(5-Fluoro-2-methoxyphenoxy)-N-(5-(2-hydroxypropan-2-yl)thiazol-2-yl)cyclobutanecarboxamide] | 10 to 79.4 nM
5 | CC(C)(O)[C@H]1CC[C@H](NC(=O)N2CC(Oc3ccccc3OC(F)(F)F)C2)CC1 [Example 258] | 100 to 1000 nM
6 | CN(C)c1ccnc(N2CC(NC(=O)[C@H]3C[C@H](Oc4cccc5scnc45)C3)C2)n1 [Example 75, (trans)-3-(Benzo[d]thiazol-4-yloxy)-N-(1-(4-(dimethylamino)pyrimidin-2-yl)azetidin-3-yl)cyclobutanecarboxamide] | 10 to 79.4 nM
7 | CC(C)(O)[C@H]1CC[C@H](NC(=O)[C@H]2C[C@H](Oc3cc(Cl)ccc3OC(F)F)C2)CC1 [Example 273, (trans)-3-(5-Chloro-2-(difluoromethoxy)phenoxy)-N-((trans)-4-(2-hydroxypropan-2-yl)cyclohexyl)cyclobutanecarboxamide] | 10 to 79.4 nM
8 | Cc1cnc(N2CC(NC(=O)[C@H]3C[C@H](Oc4cc(F)cc5scnc45)C3)C2)nc1 [Example 112, (trans)-3-((6-Fluorobenzo[d]thiazol-4-yl)oxy)-N-(1-(5-methylpyrimidin-2-yl)azetidin-3-yl)cyclobutanecarboxamide] | 10 to 79.4 nM
9 | O=C(NC1CN(c2ncc(F)cn2)C1)N1CC(Oc2cccc3scnc23)C1 [Example 61, 3-(Benzo[d]thiazol-4-yloxy)-N-(1-(5-fluoropyrimidin-2-yl)azetidin-3-yl)azetidine-1-carboxamide] | 10 to 79.4 nM
10 | O=C(NC1CN(c2cccnn2)C1)[C@H]1C[C@H](Oc2cccc3scnc23)C1 [Example 245, (trans)-3-(Benzo[d]thiazol-4-yloxy)-N-(1-(pyridazin-3-yl)azetidin-3-yl)cyclobutanecarboxamide] | 10 to 79.4 nM
11 | O=C(N[C@H]1CC[C@H](N2CC(F)(F)C2)CC1)[C@H]1C[C@H](Oc2cc(F)ccc2OC(F)F)C1 [Example 19, (trans)-N-((trans)-4-(3,3-Difluoroazetidin-1-yl)cyclohexyl)-3-(2-(difluoromethoxy)-5-fluorophenoxy)cyclobutanecarboxamide] | 10 to 79.4 nM
12 | O=C(NC1CN(c2ccccn2)C1)[C@H]1C[C@H](Oc2cc(F)ccc2OC(F)F)C1 [Example 18, (trans)-3-(2-(Difluoromethoxy)-5-fluorophenoxy)-N-(1-(pyridin-2-yl)azetidin-3-yl)cyclobutanecarboxamide] | 10 to 79.4 nM
13 | O=C(N[C@H]1CC[C@H](Nc2ncccn2)CC1)[C@H]1C[C@H](Oc2cc(F)ccc2OC(F)F)C1 [Example 10, (trans)-3-(2-(Difluoromethoxy)-5-fluorophenoxy)-N-((trans)-4-(pyrimidin-2-ylamino)cyclohexyl)cyclobutanecarboxamide] | 10 to 79.4 nM
14 | Cc1nccc(N2CC(NC(=O)[C@H]3C[C@H](Oc4cc(F)cc5scnc45)C3)C2)n1 [Example 123, (trans)-3-((6-Fluorobenzo[d]thiazol-4-yl)oxy)-N-(1-(2-methylpyrimidin-4-yl)azetidin-3-yl)cyclobutanecarboxamide] | 10 to 79.4 nM
15 | CC(C)c1nnc(NC(=O)N2CC(Oc3cccc4scnc34)C2)s1 [Example 334, 3-(Benzo[d]thiazol-4-yloxy)-N-(5-isopropyl-1,3,4-thiadiazol-2-yl)azetidine-1-carboxamide] | 10 to 79.4 nM
16 | COc1ccc(F)cc1O[C@H]1C[C@H](C(=O)NC2CCN(c3ncc(C#N)s3)C2)C1 (mixture of isomers) [Example 144, Racemic (trans)-N-(1-(5-Cyanothiazol-2-yl)pyrrolidin-3-yl)-3-(5-fluoro-2-methoxyphenoxy)cyclobutanecarboxamide] | 10 to 79.4 nM
17 | O=C(NC1CN(c2ccccn2)C1)[C@H]1C[C@H](Oc2cccc3scnc23)C1 [Example 81, (trans)-3-(Benzo[d]thiazol-4-yloxy)-N-(1-(pyridin-2-yl)azetidin-3-yl)cyclobutanecarboxamide] | 10 to 79.4 nM
18 | CS(=O)(=O)c1ccc(NC(=O)[C@H]2C[C@H](Oc3cccc4scnc34)C2)c(F)c1 [Example 247, (trans)-3-(Benzo[d]thiazol-4-yloxy)-N-(2-fluoro-4-(methylsulfonyl)phenyl)cyclobutanecarboxamide] | 10 to 79.4 nM
19 | CS(=O)(=O)c1ccc(NC(=O)N2CC(Oc3cccc4scnc34)C2)nc1 [Example 311, 3-(Benzo[d]thiazol-4-yloxy)-N-(5-(methylsulfonyl)pyridin-2-yl)azetidine-1-carboxamide] | 10 to 79.4 nM
20 | O=C(NC1CN(c2ccccn2)C1)N1CC(Oc2cccc3scnc23)C1 [Example 54, 3-(Benzo[d]thiazol-4-yloxy)-N-(1-(pyridin-2-yl)azetidin-3-yl)azetidine-1-carboxamide] | 10 to 79.4 nM
21 | CC(C)(O)[C@H]1CC[C@H](NC(=O)N2CC(C(F)c3cccc4cccnc34)C2)CC1 (mixture of isomers) [Example 256, Racemic 3-(Fluoro(quinolin-8-yl)methyl)-N-((trans)-4-(2-hydroxypropan-2-yl)cyclohexyl)azetidine-1-carboxamide] | 100 to 1000 nM
22 | Cn1ccc(NC(=O)N2CC(Oc3cccc4scnc34)C2)n1 [Example 322, 3-(Benzo[d]thiazol-4-yloxy)-N-(1-methyl-1H-pyrazol-3-yl)azetidine-1-carboxamide] | 100 to 1000 nM
23 | COc1ccc(F)cc1O[C@H]1C[C@H](C(=O)N[C@H]2CC[C@H](NC(C)C(F)(F)F)CC2)C1 (mixture of isomers) [Example 161, Racemic (trans)-3-(5-Fluoro-2-methoxyphenoxy)-N-((trans)-4-((1,1,1-trifluoropropan-2-yl)amino)cyclohexyl)cyclobutanecarboxamide] | 10 to 79.4 nM
24 | CC(N[C@H]1CC[C@H](NC(=O)[C@H]2C[C@H](Oc3cccc4cccnc34)C2)CC1)C(F)F (mixture of isomers) [Example 180, Racemic (trans)-N-((trans)-4-((1,1-Difluoropropan-2-yl)amino)cyclohexyl)-3-(quinolin-8-yloxy)cyclobutanecarboxamide] | 100 to 1000 nM
25 | N#Cc1cnc(NC(=O)[C@H]2C[C@H](Oc3cccc4ccoc34)C2)s1 [Example 261, (trans)-3-(Benzofuran-7-yloxy)-N-(5-cyanothiazol-2-yl)cyclobutanecarboxamide] | 10 to 79.4 nM
26 | CCOC(=O)c1csc(NC(=O)[C@H]2C[C@H](Oc3cc(F)ccc3OC(F)F)C2)n1 [Example 31, ethyl 2-((trans)-3-(2-(difluoromethoxy)-5-fluorophenoxy)cyclobutanecarboxamido)thiazole-4-carboxylate] | < 10 nM

From patent publication US11053234B2 (GlaxoSmithKline Intellectual Property Development Limited, priority 2016, dated 2021)
